The numbers were not newly measured in patent US11789016B2, “Methods, systems and kits for in-pen assays” (Berkeley Lights, Inc., priority 2017, dated 2023), which cites them from elsewhere.

Like-named read-outs stand apart in the source and are kept apart here.

The target in the data set is IgG. To be noted: for Kd: read-out: Affinity for IgG.

“CPD 1: Protein A-AF594, Pierce Recombinant Protein A (ThermoFisher Cat. # 77674)”: under “order of magnitude in words”, the “Affinity for IgG” value is given as “nanomolar”. Regarding “5′-rGp-rGp-rAp-rGp-rGp-fUp-rGp-fCp-fUp-fCp-fCp-rGp-rAp-rAp-rAp-rGp-rGp-rAp-rAp-fCp-fUp-fCp-fCp-3′ [CPD 5]”, under “Fc of hIgG”, the Kd was 75 nM. As for “DCAWHLGELVWCT [CPD 4, Asp Cys Ala Trp His Leu Gly Glu Leu Val Trp Cys Thr]”, the Kd (Fc) was 100 nM.
